This note sets out measurements from ChEMBL document CHEMBL4823255, “Discovery of novel potent migrastatic Thiazolo[5,4-b]pyridines targeting Lysyl-tRNA synthetase (KRS) for treatment of Cancer metastasis” (Eur J Med Chem, 2021).

Active and inactive are the calls of the source. The rule behind the calls is not given here. Some results are limits rather than exact numbers.

In data set [1] the test system is MDA-MB-231. Put plainly: Antimigratory activity against tetracycline-induced KRS T52D mutant overexpressing human MDA-MB-231 cells assessed as inhibition of cell migration at 3 uM measured after 4 hrs by flourescence plate reader method. It is filed as functional.
Data set [2] deals with T1, Lysine--tRNA ligase (Homo sapiens, UniProt Q15046). Put plainly: Binding affinity to human N-terminal His6-tagged 15N-labelled KRS (1 to 207 residues) expressed in Escherichia coli BL21(DE3) at 0.4 mM by 1H-15N TROSY NMR analysis.
Target sequence in this assay (Q15046 2-597 limits assumed): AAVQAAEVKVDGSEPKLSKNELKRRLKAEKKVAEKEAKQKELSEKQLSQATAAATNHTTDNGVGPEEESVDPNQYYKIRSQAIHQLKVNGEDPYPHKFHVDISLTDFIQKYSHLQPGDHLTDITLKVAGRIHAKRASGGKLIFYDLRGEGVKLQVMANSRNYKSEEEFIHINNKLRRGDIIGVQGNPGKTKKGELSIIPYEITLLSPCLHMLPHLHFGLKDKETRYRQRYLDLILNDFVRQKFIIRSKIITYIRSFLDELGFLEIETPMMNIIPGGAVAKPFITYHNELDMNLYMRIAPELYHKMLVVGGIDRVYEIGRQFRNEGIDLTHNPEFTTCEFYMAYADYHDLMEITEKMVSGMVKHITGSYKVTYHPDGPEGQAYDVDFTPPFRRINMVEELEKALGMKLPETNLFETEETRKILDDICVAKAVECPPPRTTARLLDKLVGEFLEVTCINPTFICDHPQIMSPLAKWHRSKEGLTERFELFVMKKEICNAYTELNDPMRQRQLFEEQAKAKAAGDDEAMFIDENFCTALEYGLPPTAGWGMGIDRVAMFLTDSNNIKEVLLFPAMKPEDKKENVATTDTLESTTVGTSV
In data set [3] the target is T1, Lysine--tRNA ligase. The data set is described as follows: Binding affinity to human N-terminal His6-tagged 15N-labelled KRS (1 to 207 residues) expressed in Escherichia coli BL21(DE3) measured by flourescence based binding titration assay.
Target sequence in this assay (Q15046 whole entry, the tested form may be a part): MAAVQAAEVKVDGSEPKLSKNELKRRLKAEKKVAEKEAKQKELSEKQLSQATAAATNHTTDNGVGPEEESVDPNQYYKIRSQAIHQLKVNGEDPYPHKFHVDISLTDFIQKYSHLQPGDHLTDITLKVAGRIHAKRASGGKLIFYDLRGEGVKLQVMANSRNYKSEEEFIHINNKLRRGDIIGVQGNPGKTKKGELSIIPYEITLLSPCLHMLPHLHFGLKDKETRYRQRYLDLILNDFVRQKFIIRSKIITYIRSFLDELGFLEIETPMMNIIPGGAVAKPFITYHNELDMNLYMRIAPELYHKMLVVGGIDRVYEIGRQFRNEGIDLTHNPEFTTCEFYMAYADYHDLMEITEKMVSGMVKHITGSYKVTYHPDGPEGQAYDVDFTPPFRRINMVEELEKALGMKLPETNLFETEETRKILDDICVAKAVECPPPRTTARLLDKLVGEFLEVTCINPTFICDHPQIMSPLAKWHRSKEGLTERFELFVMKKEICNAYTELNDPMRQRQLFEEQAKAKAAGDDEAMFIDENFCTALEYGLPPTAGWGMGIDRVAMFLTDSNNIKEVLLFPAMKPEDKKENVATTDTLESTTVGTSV
Data set [4] concerns NCI-H226. The data set is described as follows: Antimigratory activity against human NCI-H226 cells assessed as inhibition of cell migration measured after 12 hrs by Transwell assay. It is filed as functional, cell-based. The conditions noted are these: NCI-H226, 12 h.
In data set [5] the test system is 4T1. Put plainly: Anti-metastasis activity in mouse 4T1 cells xenografted in BALB/cAnCr mouse at 100 mg/kg, po administered for 16 days. It counts as functional, organism-based. The conditions noted are these: time 16.0 day.
The nature of data set [6]: Toxicity in Balb/cAnCr mouse xenografted with mouse 4T1 cells assessed as change in body weight at 100 mg/kg, po administered for 16 days. It is filed as organism-based. The settings on record: in vivo, 384 h, time 16 day.
Data set [7] is described as follows: Half life in mouse at 5 mg/kg, iv measured after 24 hrs. It counts as ADME, organism-based. The settings on record: in vivo.
Data set [8] concerns MDA-MB-231. Put plainly: Antimigratory activity against tetracycline-induced KRS T52D mutant overexpressing human MDA-MB-231 cells assessed as inhibition of cell migration measured after 4 hrs by flourescence plate reader method. It is filed as functional, cell-based. The settings on record: MDA-MB-231, 4 h.
A short description of data set [9]: Clearance in mouse at 5 mg/kg, iv measured after 24 hrs. It is filed as ADME, organism-based. The conditions noted are these: in vivo.
Data set [10] can be described thus: Cmax in mouse at 5 mg/kg, po measured after 24 hrs. It counts as ADME, organism-based. The settings on record: in vivo. Also on record: route oral, dose 5 mg/kg, time 24 hrs.
The nature of data set [11]: AUC(t) in mouse at 5 mg/kg, po measured after 24 hrs. It counts as ADME, organism-based. Set-up: route oral, time 24 hrs, dose 5 mg/kg. The settings on record: in vivo.
Data set [12] can be described thus: Metabolic stability in rat liver microsomes assessed as parent compound remaining measured after 30 mins. The conditions noted are these: read-out: Stabilty. It counts as ADME, Microsome. In general terms: Liver microsomes are vesicles of endoplasmic reticulum, rich in cytochrome P450 enzymes.
In data set [13] the target is T2, CYP1A2 (Homo sapiens, UniProt P05177).
T2 sequence (P05177 whole entry): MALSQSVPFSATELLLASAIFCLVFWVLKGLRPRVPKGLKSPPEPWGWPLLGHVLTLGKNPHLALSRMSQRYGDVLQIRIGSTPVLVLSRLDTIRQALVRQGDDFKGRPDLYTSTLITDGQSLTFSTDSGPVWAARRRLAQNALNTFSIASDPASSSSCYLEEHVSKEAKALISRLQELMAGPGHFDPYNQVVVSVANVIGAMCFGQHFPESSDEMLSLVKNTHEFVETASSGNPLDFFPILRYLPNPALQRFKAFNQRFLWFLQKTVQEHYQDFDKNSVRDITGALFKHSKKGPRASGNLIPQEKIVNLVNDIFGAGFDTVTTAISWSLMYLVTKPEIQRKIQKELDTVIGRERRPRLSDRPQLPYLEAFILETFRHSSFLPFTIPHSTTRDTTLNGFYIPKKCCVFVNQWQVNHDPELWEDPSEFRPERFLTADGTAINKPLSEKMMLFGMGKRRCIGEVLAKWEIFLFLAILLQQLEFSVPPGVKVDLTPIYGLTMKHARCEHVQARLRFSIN
The data set is described as follows: Inhibition of CYP1A2 (unknown origin) assessed as enzyme residual activity at 10 uM. It is filed as ADME. The settings on record: read-out: Activity.

Data set [14] can be described thus: Tmax in mouse at 5 mg/kg, po measured after 24 hrs. It is filed as ADME, organism-based. The settings on record: in vivo.
A short description of data set [15]: AUC(infinity) in mouse at 5 mg/kg, iv measured after 24 hrs. It is filed as ADME, organism-based. Also on record: route intravenous, time 24 hrs, dose 5 mg/kg. The conditions noted are these: in vivo.
The nature of data set [16]: Oral bioavailability in mouse at 5 mg/kg measured after 24 hrs. It is filed as ADME, organism-based. The conditions noted are these: in vivo.
Data set [17] can be described thus: AUC(infinity) in mouse at 5 mg/kg, po measured after 24 hrs. The conditions noted are these: in vivo. Also on record: route oral, dose 5 mg/kg, time 24 hrs. It counts as ADME, organism-based.
Data set [18] in a line: Metabolic stability in human liver microsomes assessed as parent compound remaining measured after 30 mins. The settings on record: read-out: Stabilty. It counts as ADME, Microsome.
For data set [19], the target named is CYP2D6 (Homo sapiens, UniProt P10635). The data set is described as follows: Inhibition of CYP2D6 (unknown origin) assessed as enzyme residual activity at 10 uM. It counts as ADME. The conditions noted are these: read-out: Activity.
Sequence of CYP2D6 (P10635 whole entry): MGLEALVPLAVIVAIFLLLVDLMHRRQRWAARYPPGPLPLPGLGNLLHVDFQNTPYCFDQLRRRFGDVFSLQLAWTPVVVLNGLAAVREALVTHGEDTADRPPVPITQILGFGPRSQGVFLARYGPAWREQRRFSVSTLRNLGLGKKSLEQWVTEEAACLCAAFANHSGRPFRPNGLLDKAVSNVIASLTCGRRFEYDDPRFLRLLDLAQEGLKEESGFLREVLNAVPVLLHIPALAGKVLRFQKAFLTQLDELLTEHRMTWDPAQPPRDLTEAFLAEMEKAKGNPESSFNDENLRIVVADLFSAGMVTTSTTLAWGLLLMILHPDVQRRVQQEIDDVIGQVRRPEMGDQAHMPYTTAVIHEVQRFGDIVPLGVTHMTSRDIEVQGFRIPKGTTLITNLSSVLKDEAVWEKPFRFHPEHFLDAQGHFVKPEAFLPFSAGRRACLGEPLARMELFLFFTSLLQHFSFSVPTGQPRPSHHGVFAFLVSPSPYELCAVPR
Data set [20] can be described thus: Volume of distribution at steady state in mouse at 5 mg/kg, iv measured after 24 hrs. It counts as ADME, organism-based. The settings on record: in vivo, read-out: Vdss.
The target of data set [21] is CYP2C19 (Homo sapiens, UniProt P33261). Put plainly: Inhibition of CYP2C19 (unknown origin) assessed as enzyme residual activity at 10 uM. It counts as ADME. The conditions noted are these: read-out: Activity.
Sequence of CYP2C19 (P33261 whole entry): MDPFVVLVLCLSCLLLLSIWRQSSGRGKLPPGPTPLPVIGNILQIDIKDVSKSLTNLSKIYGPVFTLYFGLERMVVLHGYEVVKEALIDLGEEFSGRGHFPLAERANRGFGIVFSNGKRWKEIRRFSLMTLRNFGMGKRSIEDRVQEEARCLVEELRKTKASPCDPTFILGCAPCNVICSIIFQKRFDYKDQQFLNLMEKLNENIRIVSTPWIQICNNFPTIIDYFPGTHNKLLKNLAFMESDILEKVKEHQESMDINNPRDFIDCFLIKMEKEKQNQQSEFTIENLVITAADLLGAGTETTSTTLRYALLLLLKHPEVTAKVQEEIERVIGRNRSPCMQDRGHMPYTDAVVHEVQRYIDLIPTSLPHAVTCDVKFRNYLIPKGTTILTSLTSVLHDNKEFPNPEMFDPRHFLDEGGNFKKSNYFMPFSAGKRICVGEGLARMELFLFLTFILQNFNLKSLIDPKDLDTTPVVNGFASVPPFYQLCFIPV
Data set [22] in a line: Half life in mouse at 5 mg/kg, po measured after 24 hrs. It is filed as ADME, organism-based. The settings on record: in vivo.
A short description of data set [23]: Metabolic stability in dog liver microsomes assessed as parent compound remaining measured after 30 mins. The conditions noted are these: read-out: Stabilty. It is filed as ADME, Canis lupus familiaris, Microsome.
Data set [24] concerns the target CYP2C9 (Homo sapiens, UniProt P11712). The data set is described as follows: Inhibition of CYP2C9 (unknown origin) assessed as enzyme residual activity at 10 uM. It counts as ADME. The settings on record: read-out: Activity.
Data set [25] in a line: Metabolic stability in mouse liver microsomes assessed as parent compound remaining measured after 30 mins. It is filed as ADME, Microsome. The settings on record: read-out: Stabilty.
Data set [26] in a line: Permeability of the compound at 50 uM measured after 4 hrs by PAMPA assay. It is filed as ADME. The settings on record: read-out: permeability. For orientation: PAMPA measures passive passage across an artificial lipid membrane.
For data set [27], the target named is CYP3A4 (Homo sapiens, UniProt P08684). Put plainly: Inhibition of CYP3A4 (unknown origin) assessed as enzyme residual activity at 10 uM. It counts as ADME. The conditions noted are these: read-out: Activity.
Sequence of CYP3A4 (P08684 whole entry): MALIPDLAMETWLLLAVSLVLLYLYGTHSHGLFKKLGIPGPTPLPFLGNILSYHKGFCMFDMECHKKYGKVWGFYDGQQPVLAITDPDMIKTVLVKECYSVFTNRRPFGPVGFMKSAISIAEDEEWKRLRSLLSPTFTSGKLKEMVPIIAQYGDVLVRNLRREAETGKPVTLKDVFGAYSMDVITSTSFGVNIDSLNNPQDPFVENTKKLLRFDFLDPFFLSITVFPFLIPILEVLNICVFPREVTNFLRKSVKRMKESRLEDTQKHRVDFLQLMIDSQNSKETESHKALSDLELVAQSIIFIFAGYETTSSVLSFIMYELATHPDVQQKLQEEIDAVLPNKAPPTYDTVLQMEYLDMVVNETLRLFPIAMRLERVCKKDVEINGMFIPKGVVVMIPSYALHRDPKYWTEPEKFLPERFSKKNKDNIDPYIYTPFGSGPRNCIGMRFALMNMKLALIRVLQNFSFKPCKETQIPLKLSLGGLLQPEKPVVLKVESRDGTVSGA
A short description of data set [28]: AUC(t) in mouse at 5 mg/kg, iv measured after 24 hrs. It counts as ADME, organism-based. Set-up: route intravenous, dose 5 mg/kg, time 24 hrs. The conditions noted are these: in vivo.

Sequence of CYP2C9 (P11712 whole entry): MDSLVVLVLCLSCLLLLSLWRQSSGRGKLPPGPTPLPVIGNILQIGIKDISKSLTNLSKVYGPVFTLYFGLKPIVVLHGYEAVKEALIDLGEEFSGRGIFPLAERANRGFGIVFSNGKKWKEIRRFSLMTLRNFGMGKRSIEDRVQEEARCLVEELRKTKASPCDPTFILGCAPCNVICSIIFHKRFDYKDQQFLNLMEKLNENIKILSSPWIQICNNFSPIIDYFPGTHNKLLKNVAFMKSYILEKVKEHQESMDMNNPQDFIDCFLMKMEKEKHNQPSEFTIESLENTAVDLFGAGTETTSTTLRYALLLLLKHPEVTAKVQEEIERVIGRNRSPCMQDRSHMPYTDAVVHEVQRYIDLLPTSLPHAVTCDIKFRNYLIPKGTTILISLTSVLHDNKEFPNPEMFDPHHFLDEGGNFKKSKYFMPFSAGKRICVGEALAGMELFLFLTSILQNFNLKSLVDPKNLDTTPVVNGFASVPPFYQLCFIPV

Regarding `COc1ccc(CCN(Cc2ccc(C(=O)O)cc2)c2nc3cc(F)cc(F)c3[nH]2)cc1`, the Activity entry in data set [1] is “inactive”.
As for `COc1ccc(CCN(Cc2ccc(C(=O)O)cc2)c2nc3cncnc3s2)cc1`, in data set [1], the Activity result is “inactive”.
A word on the Kd: it is the free concentration of one partner at which half of the binding sites on the other are occupied at equilibrium, for simple one-to-one binding. Higher therefore signals a looser complex. Broadly, the EC50 is the concentration needed to bring the measured effect to its halfway point. Regarding `CCC(C(=O)O)n1/c(=N/C(=O)c2cccc(C(F)(F)F)c2)sc2cc(F)c(F)cc21` (centres undefined), the Activity result in data set [2] is “Active”. This compound also showed a Kd in data set [3] of 49.2 µM. Moreover, in [4], the EC50 was 8.5 µM.
For the compound `COc1ccc(CCN(Cc2ccc(C(=O)O)cc2)c2nc3ncccc3s2)cc1`, the Activity entry in data set [1] was “inactive”.
Turning to `COc1ccc(CCN(Cc2ccc(C(=O)O)cc2)c2nc3cccnc3o2)cc1`, the Activity entry in data set [1] was “Active”.
On to `COc1ccc(CCN(Cc2ccc(C(=O)O)cc2)c2nc3cc([N+](=O)[O-])ccc3o2)cc1`, for which, in data set [1], the Activity entry is “Active”.
Turning to `COc1ccc(CCN(Cc2ccc(C(=O)O)cc2)c2nc3ccc(CO)cc3s2)cc1`, the Activity entry in data set [1] is “inactive”.
Turning to `COc1ccc(CCN(Cc2ccc(C(=O)O)cc2)c2nc3ccc[n+]([O-])c3s2)cc1`, the Activity entry in data set [1] is “inactive”.
The same measure, in the same setting: then `COc1ccc(CCN(Cc2ccc(C(=O)O)cc2)c2nc3ccc(C(=O)O)cc3s2)cc1`, with “inactive”.
As a reminder, the half-life is how long it takes for the measured level to halve. A low value points to rapid decline. As usually defined, the clearance is a measure of how efficiently the substance is removed, as volume per time. A lower clearance goes with inefficient removal. By Cmax is commonly meant the peak of the concentration-time curve. Usually AUC(0-t) stands for exposure summed from dosing to a finite time, without extrapolation to infinity. Read a high AUC(0-t) as more exposure. As a reminder, the Tmax is the time from dosing to the highest level. A word on the AUC(0-inf): it is the area under the concentration-time curve extrapolated to infinity. Low values mean low exposure, high ones high exposure. As usually defined, the bioavailability is the share of a dose that reaches the circulation, judged against a reference dose that is usually intravenous. Usually inhibition stands for how much of the control response was suppressed. As to `COc1ccc(CCN(Cc2ccc(C(=O)O)cc2)c2nc3cccnc3s2)cc1`, the Activity result in data set [2] and in [5] was “Active” in each case. In data set [6], the Activity result is recorded as “Non-Toxic”. Further, the half-life in data set [7] is 6.05 h; in [22], 1.56 h. In addition, the concentration giving a half-maximal response (EC50) in data set [8] was 0.081 µM. Moreover, the clearance in data set [9] was 392 mL/min/kg. In data set [10], this compound displayed a Cmax of 40 ng/mL. The AUC(0-t) at 24 h in [11] worked out at 168 ng·h/mL; in data set [28], 191 ng·h/mL. Also, the remaining at 0.5 h in data set [12] was 73%; in data set [18], 62.8%; in data set [23], 79.5%; in [25], 65.8%. Moreover, the activity at 10 µM in data set [13] turned out to be 91.1%; in data set [19] it was 97.9%; in data set [21], 92.2%; in data set [24], 74.6%; in [27], 98.4%. Besides, the time to peak (Tmax) in data set [14] worked out at 4.17 h. For the same compound, the AUC(0-inf) in [15] stood at 216 ng·h/mL; in [17], 192 ng·h/mL. In addition, the bioavailability in data set [16] came to 87.9%. Besides, the Vd in data set [20] turned out to be 149 L/kg. For the same compound, the equilibrium dissociation constant (Kd) in data set [3] came to 5.75 µM. The inhibition at 3 µM in data set [1] was determined as 70%. Besides, in [26], the Papp at 4 h, 50 µM was determined as 22.2 ×10⁻⁶ cm/s.
Take `COc1ccc(CCN(Cc2ccc(C(=O)O)cc2)c2nc3cnccc3s2)cc1`: the Activity result in [1] is “inactive”.
Still for that read-out and setting: the entry for `COc1ccc(CCN(Cc2ccc(C(=O)O)cc2)c2nc3cc(NC(=O)Cc4ccc(OC)cc4)ccc3o2)cc1` is “Active”.
Same read-out and setting: then `COc1ccc(CCN(Cc2ccc(C(=O)O)cc2)c2nc3ccccc3o2)cc1`, with “Active”.
Same read-out and setting: the entry for `COc1ccc(CCN(Cc2ccc(C(=O)O)cc2)c2nc3cc(Cl)cnc3s2)cc1` is “inactive”.
As for `COc1ccc(CCN(Cc2ccc(C(=O)O)cc2)c2nc3cc(NC(=O)c4ccc(N5CCN(C)CC5)cc4)ccc3o2)cc1`, the Activity result in data set [1] is “inactive”.
`COc1ccc(CCN(Cc2ccc(C(=O)O)cc2)c2nc3cc(F)c(F)c(F)c3s2)cc1`: the inhibition at 3 µM in data set [1] came to 28%.
For `Cc1cc(=O)n(-c2ccccc2)n1C` [ANTIPYRINE], the Papp at 4 h, 50 µM in [26] stood at 1.94 ×10⁻⁶ cm/s.
Turning to `CC(=O)N1CCN(c2ccc(OCC3COC(Cn4ccnc4)(c4ccc(Cl)cc4Cl)O3)cc2)CC1` (centres undefined) [KETOCONAZOLE], the activity at 10 µM in [13] is more than 100%; in [21], more than 100%; in [24], more than 100%; in [27], 31.8%.
